# Measurements published in patent US5990170A, “Therapeutic use of mono and bicarboxylic acid amides active at the peripheral cannabinoid receptor” (Lifegroup S.p.A., priority 1994, dated 1999).
# Test system: RBL-2H3 cells
# Experiment: Inhibition of 3H-serotonin release induced by ADNP/DNP-HSA immunogenic stimulation in RBL-2H3 cells
# Assay type: cell-based, rat
# Conditions: 5 μm; (+) N-(2-hydroxyethyl)-palmitoleylamide (Example 19) (Table 7)
row,SMILES,3H-serotonin release inhibition (%)
1,"Cc1c(C(=O)c2cccc3ccccc23)c2cccc3c2n1[C@H](CN1CCOCC1)CO3 [WIN 55,212-2, reference compound]",8

# Same assay, conditions: 5 μm; (-) N-(2-hydroxyethyl)-palmitoleylamide (Table 7)
row,SMILES,3H-serotonin release inhibition (%)
1,"Cc1c(C(=O)c2cccc3ccccc23)c2cccc3c2n1[C@H](CN1CCOCC1)CO3 [WIN 55,212-2, reference compound]",8

# Same assay, conditions: 10 μm; (+) N-(2-hydroxyethyl)-palmitoleylamide (Example 19) (Table 7)
row,SMILES,3H-serotonin release inhibition (%)
1,"Cc1c(C(=O)c2cccc3ccccc23)c2cccc3c2n1[C@H](CN1CCOCC1)CO3 [WIN 55,212-2, reference compound]",10

# Same assay, conditions: 10 μm; (-) N-(2-hydroxyethyl)-palmitoleylamide (Table 7)
row,SMILES,3H-serotonin release inhibition (%)
1,"Cc1c(C(=O)c2cccc3ccccc23)c2cccc3c2n1[C@H](CN1CCOCC1)CO3 [WIN 55,212-2, reference compound]",12

# Same assay, conditions: 50 μm; (+) N-(2-hydroxyethyl)-palmitoleylamide (Example 19) (Table 7)
row,SMILES,3H-serotonin release inhibition (%)
1,"Cc1c(C(=O)c2cccc3ccccc23)c2cccc3c2n1[C@H](CN1CCOCC1)CO3 [WIN 55,212-2, reference compound]",24

# Same assay, conditions: 50 μm; (-) N-(2-hydroxyethyl)-palmitoleylamide (Table 7)
row,SMILES,3H-serotonin release inhibition (%)
1,"Cc1c(C(=O)c2cccc3ccccc23)c2cccc3c2n1[C@H](CN1CCOCC1)CO3 [WIN 55,212-2, reference compound]",76

# Same assay, conditions: 70 μm; (+) N-(2-hydroxyethyl)-palmitoleylamide (Example 19) (Table 7)
row,SMILES,3H-serotonin release inhibition (%)
1,"Cc1c(C(=O)c2cccc3ccccc23)c2cccc3c2n1[C@H](CN1CCOCC1)CO3 [WIN 55,212-2, reference compound]",30

# Same assay, conditions: 70 μm; (-) N-(2-hydroxyethyl)-palmitoleylamide (Table 7)
row,SMILES,3H-serotonin release inhibition (%)
1,"Cc1c(C(=O)c2cccc3ccccc23)c2cccc3c2n1[C@H](CN1CCOCC1)CO3 [WIN 55,212-2, reference compound]",96

# Same assay, conditions: 100 μm; (+) N-(2-hydroxyethyl)-palmitoleylamide (Example 19) (Table 7)
row,SMILES,3H-serotonin release inhibition (%)
1,"Cc1c(C(=O)c2cccc3ccccc23)c2cccc3c2n1[C@H](CN1CCOCC1)CO3 [WIN 55,212-2, reference compound]",56

# Same assay, conditions: 100 μm; (-) N-(2-hydroxyethyl)-palmitoleylamide (Table 7)
row,SMILES,3H-serotonin release inhibition (%)
1,"Cc1c(C(=O)c2cccc3ccccc23)c2cccc3c2n1[C@H](CN1CCOCC1)CO3 [WIN 55,212-2, reference compound]",98

# Same assay, conditions: Rattus norvegicus, RBL-2H3, 0.25 h, read-out: 3H-serotonin net release (%)
SMILES,activity at 100 µM [%],activity at 50 µM [%],activity at 25 µM [%]
"CCCCC/C=C\C/C=C\CCCCCCCC(=O)NCCO [N-(2-hydroxyethyl)-linoleylamide, reference compound]",100,,
"CCCCCCCCCCCCCCCCCC(=O)NCc1ccc(O)c(OC)c1 [Example 39, N-(4-hydroxy-3-methoxybenzyl)-stearoylamide]",,68,
"CCCCCc1cc(O)c2c(c1)OC(C)(C)[C@@H]1CC=C(C)C[C@@H]21 [Δ8-THC, Δ8-tetrahydrocannabinol, reference compound]",,,0
"Cc1c(C(=O)c2cccc3ccccc23)c2cccc3c2n1[C@H](CN1CCOCC1)CO3 [WIN 55,212-2, reference compound]",,0,

# Same assay, conditions: Rattus norvegicus, RBL-2H3, 0.25 h, read-out: ED50
row,SMILES,IC50 [µM]
1,"CCCCCc1cc(O)c2c(c1)OC(C)(C)[C@@H]1CC=C(C)C[C@@H]21 [Δ8-THC, Δ8-tetrahydrocannabinol, reference compound]",5
2,"Cc1c(C(=O)c2cccc3ccccc23)c2cccc3c2n1[C@H](CN1CCOCC1)CO3 [WIN 55,212-2, reference compound]",6.4

# Same assay, conditions: Rattus norvegicus, RBL-2H3, 0.25 h; 100 μM; 0.1% DMSO and 0.1% ethanol (Table 3); read-out: 3H-serotonin net release (%)
row,SMILES,activity at 100 µM [%]
1,"CCCCCCCCCCCCCCCC(=O)N[C@H](CO)Cc1ccccc1 [Example 9, N-palmitoyl-[(S)-(-)-2-amino-3-phenyl-1-propanol]]",0
2,"CCCCCCCCCCCC(=O)N1CCOCC1 [Example 36, N-lauroyl-morpholine]",51

# Same assay, conditions: Rattus norvegicus, RBL-2H3, read-out: 3H-serotonin net release inhibition (%), 12.5 μM; + WIN 55,212-2 (30 μm) (Table 6)
row,SMILES,inhibition at 12.5 µM [%]
1,"CCCCC/C=C\C/C=C\C/C=C\C/C=C\CCCC(=O)O [arachidonic acid, reference compound]",59

# Same assay, conditions: Rattus norvegicus, RBL-2H3, read-out: 3H-serotonin net release inhibition (%), 12.5 μM; - WIN (Table 6)
row,SMILES,inhibition at 12.5 µM [%]
1,"CCCCC/C=C\C/C=C\C/C=C\C/C=C\CCCC(=O)O [arachidonic acid, reference compound]",4

# Same assay, conditions: Rattus norvegicus, RBL-2H3, read-out: 3H-serotonin net release inhibition (%), 25 μM; - anandamide (Table 4)
row,SMILES,inhibition at 25 µM [%]
1,"CCCCCc1cc(O)c2c(c1)OC(C)(C)[C@@H]1CC=C(C)C[C@@H]21 [Δ8-THC, Δ8-tetrahydrocannabinol, reference compound]",100

# Same assay, conditions: Rattus norvegicus, RBL-2H3, read-out: 3H-serotonin net release inhibition (%), 30 μM; + anandamide (12.5 μM) (Table 4)
row,SMILES,inhibition at 30 µM [%]
1,"Cc1c(C(=O)c2cccc3ccccc23)c2cccc3c2n1[C@H](CN1CCOCC1)CO3 [WIN 55,212-2, reference compound]",36

# Same assay, conditions: Rattus norvegicus, RBL-2H3, read-out: 3H-serotonin net release inhibition (%), 30 μM; - anandamide (Table 4)
row,SMILES,inhibition at 30 µM [%]
1,"Cc1c(C(=O)c2cccc3ccccc23)c2cccc3c2n1[C@H](CN1CCOCC1)CO3 [WIN 55,212-2, reference compound]",100

# Same assay, conditions: Rattus norvegicus, RBL-2H3, read-out: 3H-serotonin release inhibition %, 0.2% DMSO; 50 μM (Table 8)
row,SMILES,inhibition at 50 µM [%]
1,"CCCCCCCCCCCCCCCCCC(=O)NCc1ccc(O)c(OC)c1 [Example 39, N-(4-hydroxy-3-methoxybenzyl)-stearoylamide]",32

# Same assay, conditions: Rattus norvegicus, RBL-2H3, read-out: 3H-serotonin release inhibition %, 0.2% DMSO; 100 μM (Table 8)
row,SMILES,inhibition at 100 µM [%]
1,"CCCCCCCCCCCCCCCC(=O)N[C@H](CO)Cc1ccccc1 [Example 9, N-palmitoyl-[(S)-(-)-2-amino-3-phenyl-1-propanol]]",100

# Same assay, conditions: Rattus norvegicus, RBL-2H3, read-out: 3H-serotonin release inhibition %, 1% DMSO; 100 μM (Table 8)
row,SMILES,inhibition at 100 µM [%]
1,"CCCCCCCCCCCCCCCCCC(=O)NCc1ccc(O)c(OC)c1 [Example 39, N-(4-hydroxy-3-methoxybenzyl)-stearoylamide]",67

# Same assay, conditions: WIN 55,212-2 30 μm alone (DNP.HSA line, + WIN) (Table 6)
row,SMILES,3H-serotonin net release inhibition (%)
1,"Cc1c(C(=O)c2cccc3ccccc23)c2cccc3c2n1[C@H](CN1CCOCC1)CO3 [WIN 55,212-2, reference compound]",69

# Same assay, conditions: co-incubation with anandamide; in words
row,SMILES,effect of anandamide co-incubation on the ability to inhibit serotonin release
1,"CCCCCCCCCCCCCCCC(=O)N[C@H](CO)Cc1ccccc1 [Example 9, N-palmitoyl-[(S)-(-)-2-amino-3-phenyl-1-propanol]]",reduces the ability

# Same assay, conditions: read-out: ED50, inhibition of 3H-serotonin release; + anandamide (12.5 μM) (Table 5); 15 min
row,SMILES,IC50 [µM]
1,"Cc1c(C(=O)c2cccc3ccccc23)c2cccc3c2n1[C@H](CN1CCOCC1)CO3 [WIN 55,212-2, reference compound]",40

# Same assay, conditions: result in words
row,SMILES,functional effect following receptor activation (serotonin release)
1,"CCCCCc1cc(O)c2c(c1)OC(C)(C)[C@@H]1CC=C(C)C[C@@H]21 [Δ8-THC, Δ8-tetrahydrocannabinol, reference compound]","able to inhibit, in a concentration-dependent way, RBL cells immunogenic activation"
2,"Cc1c(C(=O)c2cccc3ccccc23)c2cccc3c2n1[C@H](CN1CCOCC1)CO3 [WIN 55,212-2, reference compound]","able to inhibit, in a concentration-dependent way, RBL cells immunogenic activation"

# Test system: not listed separately
# Experiment: Solubility in water and organic solvents
# Conditions: chloroform, organic solvent or mixture
row,SMILES,solubility [µg/mL]
1,"CCCCCCCCCCCCCCCC(=O)N[C@H](CO)Cc1ccccc1 [Example 9, N-palmitoyl-[(S)-(-)-2-amino-3-phenyl-1-propanol]]",> 10000

# Same assay, conditions: dmso, organic solvent or mixture
row,SMILES,solubility [µg/mL]
1,"CCCCCCCCCCCCCCCCCC(=O)NCc1ccc(O)c(OC)c1 [Example 39, N-(4-hydroxy-3-methoxybenzyl)-stearoylamide]",> 10000
2,"CCCCCCCCCCCC(=O)N1CCOCC1 [Example 36, N-lauroyl-morpholine]",> 10000

# Same assay, conditions: ethanol, organic solvent or mixture
row,SMILES,solubility [µg/mL]
1,"CCCCCCCCCCCCCCCCCC(=O)NCc1ccc(O)c(OC)c1 [Example 39, N-(4-hydroxy-3-methoxybenzyl)-stearoylamide]",> 10000
2,"CCCCCCCCCCCC(=O)N1CCOCC1 [Example 36, N-lauroyl-morpholine]",> 10000

# Same assay, conditions: result in words
row,SMILES,solubility in water
1,"CCCCCCCCCCCCCCCC(=O)N[C@H](CO)Cc1ccccc1 [Example 9, N-palmitoyl-[(S)-(-)-2-amino-3-phenyl-1-propanol]]",scarcely soluble
2,"CCCCCCCCCCCCCCCCCC(=O)NCc1ccc(O)c(OC)c1 [Example 39, N-(4-hydroxy-3-methoxybenzyl)-stearoylamide]",scarcely soluble
3,"CCCCCCCCCCCC(=O)N1CCOCC1 [Example 36, N-lauroyl-morpholine]",scarcely soluble
